# Results as given in US11286281B2, “Homodetic cyclic peptides targeting alpha-4-beta-7 integrin” (priority 2017, dated 2022).
# Values joined by “and” are separate entries in the source; they are usually repeats but may differ in a detail not shown here. Equal values may be shown once. Read-outs that look alike come from different tables or passages of the source. Numbered stars: 1 amine (or outer) side, 2 acyl side, 3 side chain; on linkers, the order of the positions; unused ones are H or OH. Square brackets hold non-standard residues; d marks the D form. Peptide text beside a SMILES is read from it. X1 = O=C(c1ccc(-c2ccc(N3CCNCC3)cc2)c(CN[*:1])c1)[*:2]
# Assays:
# integrin α4β7 = molecular target: T1, integrin α4β7 (Homo sapiens, UniProt P13612+P26010); test: Whole blood ligand displacement (receptor occupancy): biotinylated rhMAdCAM-1 binding to α4β7+ Th memory cells; format: cell-based; settings: for selectivity of RO versus α4β1 (fold difference in IC50 between assays): whole blood, α4β7 versus α4β1
# T1 sequence (P13612 34-1032): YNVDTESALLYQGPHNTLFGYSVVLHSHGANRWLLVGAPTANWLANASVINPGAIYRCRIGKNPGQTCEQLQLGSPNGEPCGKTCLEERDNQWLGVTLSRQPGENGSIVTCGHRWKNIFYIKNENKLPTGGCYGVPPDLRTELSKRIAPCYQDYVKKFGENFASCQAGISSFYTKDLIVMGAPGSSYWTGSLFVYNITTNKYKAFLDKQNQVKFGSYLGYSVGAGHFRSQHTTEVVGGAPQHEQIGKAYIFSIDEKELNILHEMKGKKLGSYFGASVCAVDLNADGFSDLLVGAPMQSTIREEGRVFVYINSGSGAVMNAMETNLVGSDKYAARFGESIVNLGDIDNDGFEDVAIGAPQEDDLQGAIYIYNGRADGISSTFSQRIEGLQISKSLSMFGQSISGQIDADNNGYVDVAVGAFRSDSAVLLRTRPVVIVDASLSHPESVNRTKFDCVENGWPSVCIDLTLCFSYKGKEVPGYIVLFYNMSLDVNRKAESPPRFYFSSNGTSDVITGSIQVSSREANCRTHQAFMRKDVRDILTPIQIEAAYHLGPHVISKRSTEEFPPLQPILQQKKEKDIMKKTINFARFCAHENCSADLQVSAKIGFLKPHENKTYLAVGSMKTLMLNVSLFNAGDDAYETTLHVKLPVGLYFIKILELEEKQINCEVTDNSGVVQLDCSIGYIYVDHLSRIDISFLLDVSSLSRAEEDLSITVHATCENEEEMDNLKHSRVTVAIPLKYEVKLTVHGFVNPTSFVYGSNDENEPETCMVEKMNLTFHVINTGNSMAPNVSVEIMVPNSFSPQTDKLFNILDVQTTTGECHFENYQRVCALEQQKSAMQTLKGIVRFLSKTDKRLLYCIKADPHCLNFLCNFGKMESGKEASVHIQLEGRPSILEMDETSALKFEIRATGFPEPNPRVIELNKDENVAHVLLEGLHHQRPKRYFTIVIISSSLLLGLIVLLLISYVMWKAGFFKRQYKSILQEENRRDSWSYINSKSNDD
# T1 sequence (P26010 20-798): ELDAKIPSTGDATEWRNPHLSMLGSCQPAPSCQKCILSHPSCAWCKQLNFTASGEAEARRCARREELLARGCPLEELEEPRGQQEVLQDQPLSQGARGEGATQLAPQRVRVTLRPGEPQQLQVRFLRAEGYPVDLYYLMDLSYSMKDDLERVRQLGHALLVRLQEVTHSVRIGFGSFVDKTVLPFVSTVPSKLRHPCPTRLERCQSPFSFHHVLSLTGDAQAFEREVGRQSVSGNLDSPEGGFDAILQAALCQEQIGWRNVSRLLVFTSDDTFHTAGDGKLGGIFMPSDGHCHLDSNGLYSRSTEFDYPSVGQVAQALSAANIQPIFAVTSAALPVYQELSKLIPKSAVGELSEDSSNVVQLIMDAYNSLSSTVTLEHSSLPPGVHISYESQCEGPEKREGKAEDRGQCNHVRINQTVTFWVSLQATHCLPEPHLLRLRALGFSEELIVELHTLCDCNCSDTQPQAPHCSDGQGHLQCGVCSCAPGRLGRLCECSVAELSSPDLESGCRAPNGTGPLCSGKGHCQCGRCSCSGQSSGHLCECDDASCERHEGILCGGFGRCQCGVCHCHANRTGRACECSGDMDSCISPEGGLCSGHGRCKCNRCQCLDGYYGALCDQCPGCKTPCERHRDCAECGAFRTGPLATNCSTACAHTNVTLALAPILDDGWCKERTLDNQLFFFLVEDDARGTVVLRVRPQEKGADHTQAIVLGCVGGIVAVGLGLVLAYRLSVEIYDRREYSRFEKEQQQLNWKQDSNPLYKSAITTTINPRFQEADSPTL
# Procedure: Receptor occupancy (RO) in primary cells was determined by measuring the amount of biotinylated human recombinant MAdCAM-1-FC or human recombinant VCAM-1-Fc bound to selected cell populations using flow cytometry. Human recombinant MAdCAM-1-FC or human recombinant VCAM-1-FC (R&D systems) were biotinylated using commercially available reagents and protocol (Pierce). Whole blood was collected from human donors in sodium heparin tubes. […] Cells were washed twice with 1 mL of 1×DPBS calcium magnesium free(CMF) (ThermoFisher Scientific) and resuspended in 100 μL of DPBS CMF. […] Cells were washed with 1 mL stain buffer-FBS (BD Biosciences) and resuspended in 100 μl stain Buffer-FBS (BD Biosciences) containing 4 mM MnCl2. […] Cells were then washed with 1 mL stain buffer-FBS and resuspended in 100 μl stain buffer-FBS. The cells were incubated in the dark for 30 minutes at room temperature with 1 μl Streptavidin APC (Biolegend 0.2 mg/ml) and a panel of antibodies for the detection of memory T helper a4b7-positive cells subset. And amount of 5.0 μl each of the following antibodies were used; CD45 FITC (BioLegend 200 μg/ml), CD29 APC Cy7 (BioLegend 100 μg/ml), Integrin beta7 PE, (BioLegend concentration 50 μg/mL), CD49d […] (BioLegend 50 μg/mL), CD3 […] (BioLegend 30 μg/mL), CD4 PECy7 (BioLegend 100 μg/mL), CD45RO PerCP, BioLegend 200 μg/mL). The cells were then washed with stain-buffer-FBS and resuspended in 150 μL stain buffer-FBS for acquisition on the flow cytometer (BD FACSCantoTM flow cytometer and […] software). FACS data was acquire by electronic gating on the basis of forward versus side scatter, The cytometer was set to collect 20,000 events in each tube. Cell population were determined using the following markers, CD45+, CD3+, CD4+, CD45RO+, CD49d+, integrin β7, biotinylated ligands.
# integrin α4β1 = integrin α4β1 (Homo sapiens, UniProt P05556+P13612); test: Whole blood ligand displacement (receptor occupancy): biotinylated rhVCAM-1 binding to α4β7-negative Th memory cells; format: cell-based; settings: read-out: VCAM Competition IC50 (receptor occupancy)
# Procedure: Receptor occupancy (RO) in primary cells was determined by measuring the amount of biotinylated human recombinant MAdCAM-1-FC or human recombinant VCAM-1-Fc bound to selected cell populations using flow cytometry. Human recombinant MAdCAM-1-FC or human recombinant VCAM-1-FC (R&D systems) were biotinylated using commercially available reagents and protocol (Pierce). Whole blood was collected from human donors in sodium heparin tubes. […] Cells were washed twice with 1 mL of 1×DPBS calcium magnesium free(CMF) (ThermoFisher Scientific) and resuspended in 100 μL of DPBS CMF. […] Cells were washed with 1 mL stain buffer-FBS (BD Biosciences) and resuspended in 100 μl stain Buffer-FBS (BD Biosciences) containing 4 mM MnCl2. […] Cells were then washed with 1 mL stain buffer-FBS and resuspended in 100 μl stain buffer-FBS. The cells were incubated in the dark for 30 minutes at room temperature with 1 μl Streptavidin APC (Biolegend 0.2 mg/ml) and a panel of antibodies for the detection of memory T helper a4b7-positive cells subset. And amount of 5.0 μl each of the following antibodies were used; CD45 FITC (BioLegend 200 μg/ml), CD29 APC Cy7 (BioLegend 100 μg/ml), Integrin beta7 PE, (BioLegend concentration 50 μg/mL), CD49d […] (BioLegend 50 μg/mL), CD3 […] […] Cell population were determined using the following markers, CD45+, CD3+, CD4+, CD45RO+, CD49d+, integrin β7, biotinylated ligands.
# [1] = α4β7 Th memory cells, human whole blood, read-out: MAdCAM-1 Competition IC50 (receptor occupancy)
# Chain of integrin α4β1 (P05556 21-798, one chain of several): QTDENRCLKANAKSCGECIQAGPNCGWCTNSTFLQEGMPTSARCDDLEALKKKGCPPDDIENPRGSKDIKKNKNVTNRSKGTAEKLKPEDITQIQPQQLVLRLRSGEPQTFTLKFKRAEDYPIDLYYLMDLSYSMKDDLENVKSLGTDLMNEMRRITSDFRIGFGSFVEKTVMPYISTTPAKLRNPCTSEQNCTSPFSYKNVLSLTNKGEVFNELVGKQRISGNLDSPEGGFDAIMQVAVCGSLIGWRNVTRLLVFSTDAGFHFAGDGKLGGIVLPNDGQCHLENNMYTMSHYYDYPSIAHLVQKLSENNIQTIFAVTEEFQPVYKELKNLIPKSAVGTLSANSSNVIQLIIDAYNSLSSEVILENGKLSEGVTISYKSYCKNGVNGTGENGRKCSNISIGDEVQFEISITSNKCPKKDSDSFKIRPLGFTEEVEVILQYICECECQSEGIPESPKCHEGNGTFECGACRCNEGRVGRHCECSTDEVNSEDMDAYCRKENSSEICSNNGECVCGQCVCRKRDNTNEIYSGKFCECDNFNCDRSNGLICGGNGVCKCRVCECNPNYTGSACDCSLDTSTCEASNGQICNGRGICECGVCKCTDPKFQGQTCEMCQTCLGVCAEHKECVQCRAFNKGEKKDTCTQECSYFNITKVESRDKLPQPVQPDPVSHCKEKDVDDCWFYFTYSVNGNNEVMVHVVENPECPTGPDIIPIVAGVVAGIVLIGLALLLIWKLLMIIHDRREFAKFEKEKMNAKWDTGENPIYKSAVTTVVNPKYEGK
Compound,"competition with MAdCAM-1 on α4β7-positive primary cells, result in words (integrin α4β7; human whole blood)","IC50 (integrin α4β7; human whole blood, read-out: α4β7 RO IC50) [nM]",selectivity of RO versus α4β1 (fold difference in IC50 between assays) (integrin α4β7),IC50 (integrin α4β7; [1]),IC50 (integrin α4β1) [nM],α4β7 RO IC50 (integrin α4β7; human whole blood)
CC(C)C[C@@H]1NC(=O)c2ccc(-c3ccc(N4CCNCC4)cc3)c(c2)CNC(=O)[C@@H]2CCCN2C(=O)[C@H](C)NC(=O)[C@H]([C@@H](C)O)NC(=O)[C@H](CC(=O)O)NC1=O [Compound 8] (cyclo(P[X1]LDTA)),relatively weak concentration-response curve,> 4000,no selectivity,> 4000 nM,> 4000,
CC(C)C[C@@H]1NC(=O)c2ccc(-c3ccc(N4CCN(Cc5cccc(CN6CCN(c7ccc(-c8ccc9cc8CNC(=O)[C@@H]8CCCN8C(=O)[C@H](C)NC(=O)[C@H]([C@@H](C)O)NC(=O)[C@H](CC(=O)O)NC(=O)[C@H](CC(C)C)NC9=O)cc7)CC6)c5)CC4)cc3)c(c2)CNC(=O)[C@@H]2CCCN2C(=O)[C@H](C)NC(=O)[C@H]([C@@H](C)O)NC(=O)[C@H](CC(=O)O)NC1=O [Compound 18],,,selectivity versus α4β1,25 nM and 24.7 nM,123,sub-micromolar
